Test results from PubChem BioAssay (NCI).
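1) Cells in 96-well plates. 2) Compound, 48 h, 5 concentrations. 3) Linear interpolation between surrounding doses. 4) Unreached endpoint = highest concentration. At the TGI there is no net growth.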

Legend:
Assay in all cases: inhibition of tumour cell growth, NCI panel, 48 h
NCI-H23 lung = tested on: NCI-H23 lung
SNB-75 CNS = tested on: SNB-75 CNS
KM20L2 colon = tested on: KM20L2 colon
LXFL 529 NSCLC = tested on: LXFL 529 NSCLC
LOX IMVI melanoma = tested on: LOX IMVI melanoma
U251 CNS = tested on: U251 CNS
HT29 colon = tested on: HT29 colon
SK-MEL-28 melanoma = tested on: SK-MEL-28 melanoma
EKVX NSCLC = tested on: EKVX NSCLC
KM12 colon = tested on: KM12 colon
K-562 leukemia = tested on: K-562 leukemia
XF 498 CNS = tested on: XF 498 CNS
SK-MEL-2 melanoma = tested on: SK-MEL-2 melanoma
RPMI-8226 leukemia = tested on: RPMI-8226 leukemia
SK-OV-3 ovarian = tested on: SK-OV-3 ovarian
HOP-92 NSCLC = tested on: HOP-92 NSCLC
M14 melanoma = tested on: M14 melanoma
CCRF-CEM leukemia = tested on: CCRF-CEM leukemia
ACHN renal = tested on: ACHN renal
786-0 renal = tested on: 786-0 renal
RXF 393 renal = tested on: RXF 393 renal
NCI-H226 lung = tested on: NCI-H226 lung
A549 NSCLC = tested on: A549 NSCLC
HCC-2998 colon = tested on: HCC-2998 colon
UO-31 renal = tested on: UO-31 renal
SK-MEL-5 melanoma = tested on: SK-MEL-5 melanoma
HOP-62 NSCLC = tested on: HOP-62 NSCLC
MOLT-4 leukemia = tested on: MOLT-4 leukemia
OVCAR-4 ovarian = tested on: OVCAR-4 ovarian
SF-268 CNS = tested on: SF-268 CNS
OVCAR-8 ovarian = tested on: OVCAR-8 ovarian
NCI-H460 lung = tested on: NCI-H460 lung
IGROV1 ovarian = tested on: IGROV1 ovarian
HCT-116 colon = tested on: HCT-116 colon
DMS 114 small cell lung = tested on: DMS 114 small cell lung
COLO 205 colon = tested on: COLO 205 colon
NCI-H522 lung = tested on: NCI-H522 lung
SF-295 CNS = tested on: SF-295 CNS
SW-620 colon = tested on: SW-620 colon
SF-539 CNS = tested on: SF-539 CNS
HL-60(TB) leukemia = tested on: HL-60(TB) leukemia
CAKI-1 renal = tested on: CAKI-1 renal
SNB-78 CNS = tested on: SNB-78 CNS
OVCAR-5 ovarian = tested on: OVCAR-5 ovarian
DLD-1 colon = tested on: DLD-1 colon
M19-MEL melanoma = tested on: M19-MEL melanoma
TK-10 renal = tested on: TK-10 renal
OVCAR-3 ovarian = tested on: OVCAR-3 ovarian
SN12C renal = tested on: SN12C renal
MALME-3M melanoma = tested on: MALME-3M melanoma
UACC-257 melanoma = tested on: UACC-257 melanoma
SNB-19 CNS = tested on: SNB-19 CNS

## CCc1ccccc1NC(=O)C1=C(C)NC(C)=C(C(=O)Nc2c(CC)cccc2CC)C1c1ccc2c(c1)OCO2 (configuration not stated)
NCI-H23 lung
  TGI: 31.2 µM
SNB-75 CNS
  TGI: > 100 µM
KM20L2 colon
  TGI: 39.3 µM
LXFL 529 NSCLC
  TGI: 33 µM
LOX IMVI melanoma
  TGI: 35.1 µM
U251 CNS
  TGI: 30 µM
HT29 colon
  TGI: 32.2 µM
SK-MEL-28 melanoma
  TGI: 36.6 µM
EKVX NSCLC
  TGI: 69.4 µM
KM12 colon
  TGI: 30.5 µM
K-562 leukemia
  TGI: 58.7 µM
XF 498 CNS
  TGI: 47.5 µM
SK-MEL-2 melanoma
  TGI: 29.5 µM
RPMI-8226 leukemia
  TGI: 41.3 µM
SK-OV-3 ovarian
  TGI: > 100 µM
HOP-92 NSCLC
  TGI: 36.4 µM
M14 melanoma
  TGI: 33.5 µM
CCRF-CEM leukemia
  TGI: 51.4 µM
ACHN renal
  TGI: 35.1 µM
786-0 renal
  TGI: 34.8 µM
RXF 393 renal
  TGI: 25.4 µM
NCI-H226 lung
  TGI: 43.4 µM
A549 NSCLC
  TGI: 39.2 µM
HCC-2998 colon
  TGI: 30.2 µM
UO-31 renal
  TGI: 29.8 µM
SK-MEL-5 melanoma
  TGI: 28.5 µM
HOP-62 NSCLC
  TGI: 35 µM
MOLT-4 leukemia
  TGI: 57.5 µM
OVCAR-4 ovarian
  TGI: 35.9 µM
SF-268 CNS
  TGI: 57.6 µM
OVCAR-8 ovarian
  TGI: 84.5 µM
NCI-H460 lung
  TGI: 33.8 µM
IGROV1 ovarian
  TGI: 94.7 µM
HCT-116 colon
  TGI: 30.6 µM
DMS 114 small cell lung
  TGI: 53.5 µM
COLO 205 colon
  TGI: 44.1 µM
NCI-H522 lung
  TGI: 30.9 µM
SF-295 CNS
  TGI: 48.5 µM
SW-620 colon
  TGI: 43.2 µM
SF-539 CNS
  TGI: 40.4 µM
HL-60(TB) leukemia
  TGI: 58.4 µM
CAKI-1 renal
  TGI: 39.7 µM
SNB-78 CNS
  TGI: 81.7 µM
OVCAR-5 ovarian
  TGI: 36.1 µM
DLD-1 colon
  TGI: 51.3 µM
M19-MEL melanoma
  TGI: 54.7 µM
TK-10 renal
  TGI: 53.5 µM
OVCAR-3 ovarian
  TGI: 38.4 µM
SN12C renal
  TGI: 74.3 µM
MALME-3M melanoma
  TGI: 32.5 µM
UACC-257 melanoma
  TGI: 35.4 µM
SNB-19 CNS
  TGI: 76.6 µM
